Patent publication US20190030023A1, “METHODS FOR TREATING CANCER” (X4 Pharmaceuticals, Inc., priority 2016, published 2019)
Converted amounts (≈) assume the structure as drawn.

Legend:
[1] = system: unresectable or metastatic melanoma; conditions: Phase 3 trial, P<0.001 pembrolizumab vs ipilimumab; cited from earlier work
[2] = system: murine models of melanoma, renal cell carcinoma, and ovarian cancer; conditions: cited from earlier work
[3] = system: circulating white blood cells (WBCs); conditions: Phase 1 and 2a trials, oral administration; cited from earlier work
[4] = Solubility of X4P-001 by pH and in water; format: physicochemical; conditions: for solubility: aqueous buffer
[5] = Phase 1 and 2a trials; suggests high tissue penetrance; cited from earlier work
[6] = in vivo; conditions: terminal half-life
Experimental: In certain embodiments, the dosage composition may be provided twice a day in divided dosage, approximately 12 hours apart. In other embodiments, the dosage composition may be provided once daily. […] Dosage for oral administration may be from about 100 mg to about 1200 mg once or twice per day.

[7] = system: pancreatic adenocarcinoma; conditions: cited from earlier work

For “Pembrolizumab: humanized IgG4 kappa monoclonal antibody that blocks the interaction between PD-1 and its ligands, PD-L1 and PD-L2”, the objective response rate [1] is given as 33%.
In the case of ipilimumab: anti-CTLA-4 antibody, the objective response rate [1] is listed as 12%.
For `NCCCCN(Cc1nc2ccccc2[nH]1)[C@H]1CCCc2cccnc21` [X4P-001], the “anti-tumor activity, including decreased metastasis and increased overall survival” value [2] is listed as “significant anti-tumor activity”, the “pharmacodynamic activity: changes in circulating white blood cells (WBCs)” value [3] is listed as “dose- and concentration-related changes” and the solubility ([4]; pH 9.0 (sparingly soluble)) is listed as 10.7 mg/mL (≈ 30.6 mM). The solubility ([4]; pH 10.0 (slightly soluble)) was 2 mg/mL (≈ 5.72 mM), the solubility ([4]; pH range 3.0 to 8.0 (freely soluble)) was greater than 100 mg/mL and the solubility in water ([4]; water) was “only slightly soluble”. For the same compound, the “volume of distribution (VL)” value [5] was “high”, the half-life ([6]; approximate value) was roughly 14.5 h and the half-life ([6]; range) was 12 to 24 h.
In the case of `c1cc(CN2CCCNCCNCCCNCC2)ccc1CN1CCCNCCNCCCNCC1` [Plerixafor], the “anti-tumor activity, including decreased metastasis and increased overall survival” value [2] is listed as “significant anti-tumor activity”, the “T-cell accumulation among the cancer cells” value ([7]; CXCR4 antagonist alone) is listed as “induced rapid T-cell accumulation” and the tumor growth ([7]; in combination with anti-PD-L1) is listed as “synergistically decreased tumor growth”.
